Among the data in patent publication US20110301143A1, “HETEROCYCLIC DERIVATIVES AS INHIBITORS OF STEAROYL-COENZYME A DELTA-9 DESATURASE” (priority 2009, published 2011) are IC50 values, retold here.

Bounds are passed on as bounds.

For this assay, the target named is T1, human SCD1 (hSCD-1) (Homo sapiens, UniProt O00767).
T1 construct: made in house; host or cells: baculovirus/Sf9 insect cells
T1 sequence (O00767 1-359): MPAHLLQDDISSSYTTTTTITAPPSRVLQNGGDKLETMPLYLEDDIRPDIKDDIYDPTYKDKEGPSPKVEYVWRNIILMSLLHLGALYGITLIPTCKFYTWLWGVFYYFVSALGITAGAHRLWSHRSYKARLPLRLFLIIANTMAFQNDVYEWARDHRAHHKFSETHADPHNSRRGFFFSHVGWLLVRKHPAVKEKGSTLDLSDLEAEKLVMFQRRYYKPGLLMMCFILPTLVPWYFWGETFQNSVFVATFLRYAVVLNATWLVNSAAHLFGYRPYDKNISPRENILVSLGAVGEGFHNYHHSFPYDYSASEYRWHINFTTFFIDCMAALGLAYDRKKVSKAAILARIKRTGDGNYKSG
In words: SCD enzyme activity assay, reconstituted human SCD1 (conversion of radiolabeled stearoyl-CoA to oleoyl-CoA). The class given is biochemical. The settings on record: human SCD-1. On the procedure: The potency of compounds of formula I against the stearoyl-CoA desaturase was determined by measuring the conversion of radiolabeled stearoyl-CoA to oleoyl-CoA using rat liver microsome or human SCD1 (hSCD-1) following previously published procedures with some modifications (Joshi, et al., J. Lipid Res., 18: 32-36 (1977); Talamo, et al., Anal. Biochem, 29: 300-304 (1969)). Liver microsome was prepared from male Wistar or Sprague Dawley rats on a high carbohydrate diet for 3 days (LabDiet # 5803, Purina). The livers were homogenized (1:10 w/v) in a buffer containing 250 mM sucrose, 1 mM EDTA, 5 mM DTT and 50 mM Tris-HCl (pH 7.5). After a 100,000×g centrifugation for 60 min, the liver microsome pellet was suspended in a buffer containing 100 mM sodium phosphate, 20% glycerol, 2 mM DTT, and stored at −78° C. Human SCD1 desaturase system was reconstituted using human SCD1 from a baculovirus/Sf9 expression system, cytochrome B5 and cytochrome B5 reductase. Typically, test compound in 2 μL DMSO was incubated for 15 min at room temperature with 180 μL of the SCD enzyme in a buffer containing 100 mM Tris-HCl (pH 7.5), ATP (5 mM), Coenzyme-A (0.1 mM), Triton X-100 (0.5 mM) and NADH (2 mM). The reaction was initiated by the addition of 20 μL of [^3H]-stearoyl-CoA (final concentration=2 μM, radioactivity concentration=1 μCi/mL). After 10 min, the reaction mixture (80 μL) was mixed with a calcium chloride/charcoal aqueous suspension (100 μl, charcoal (10% w/v) plus 25 μL CaCl2 (2N). After centrifugation to precipitate the radioactive fatty acid species, tritiated water released from 9,10-[^3H]-stearoyl-CoA by the SCD enzyme was quantified on a scintillation counter.
In general, IC50 refers to the midpoint of a concentration-inhibition curve. The molecule `O=C(O)Cn1nnc(-c2cc(N3CCC(C(=O)c4cc(F)ccc4C(F)F)CC3)no2)n1` yielded an IC50 of less than 0.02 µM.
Under `Cc1ccc(Cl)cc1C(=O)C1CCN(c2cc(-c3nnn(CC(=O)O)n3)on2)CC1` stands 0.028 µM.
Molecule `COc1ccc(Cl)c(C(=O)C2CCN(c3cc(-c4nnn(CC(=O)O)n4)on3)CC2)c1` yielded an IC50 of 0.095 µM.
The figure for `CCc1ccc(F)cc1C(=O)C1CCN(c2cc(-c3nnn(CC(=O)O)n3)on2)CC1` is less than 0.02 µM; for `O=C(O)Cn1nnc(-c2cnc(N3CCC(C(=O)c4cc(F)ccc4C(F)(F)F)CC3)nc2)n1` it is 0.027 µM.
The figure for `CC1(c2ccc(F)cc2C(=O)C2CCN(c3cc(-c4nnn(CC(=O)O)n4)on3)CC2)CC1` is less than 0.02 µM; for `O=C(O)Cn1nnc(-c2cc(N3CCC(C(=O)c4ccccc4OC(F)F)CC3)no2)n1` it is 0.04 µM.
The figure for `O=C(O)Cn1nnc(-c2cc(N3CCC(C(=O)c4cc(Cl)ccc4C(F)(F)F)CC3)no2)n1` is 0.032 µM.
`O=C(O)Cn1nnc(-c2cnc(N3C[C@@H]4C[C@H]3CN4c3cc(F)ccc3Cl)s2)n1` returned an IC50 of less than 0.02 µM.
The figure for `O=C(O)Cn1nnc(-c2cnc(N3CC=C(c4ccccc4C(F)(F)F)CC3)s2)n1` is less than 0.02 µM; for `O=C(O)Cn1nnc(-c2cnc(N3C[C@@H]4C[C@H]3CN4c3cccc(Cl)c3)s2)n1` it is less than 0.02 µM.
The figure for `O=C(O)Cn1nnc(-c2cc(N3CCC(C(=O)c4cc(Cl)ccc4C(F)F)CC3)no2)n1` is less than 0.02 µM.
The figure for `O=C(O)Cn1nnc(-c2cnc(N3CCN(c4cc(C(F)(F)F)cc(C(F)(F)F)c4)CC3)nc2)n1` is 0.044 µM; for `O=C(O)Cn1nnc(-c2cc(N3CCC(C(=O)c4ccccc4C(F)(F)F)CC3)no2)n1` it is less than 0.02 µM; for `CCC(C)c1ccccc1C(=O)C1CCN(c2cc(-c3nnn(CC(=O)O)n3)on2)CC1` (stereo not shown) it is less than 0.02 µM.
The molecule `O=C(O)Cn1nnc(-c2cc(N3CCC(C(=O)c4cc(F)ccc4C4CCC4)CC3)no2)n1` registered an IC50 of less than 0.02 µM.
`O=C(O)Cn1nnc(-c2cc(N3CCC(C(=O)c4cc(C(F)(F)F)ccc4Cl)CC3)no2)n1` showed an IC50 of 0.022 µM.
Under `O=C(O)Cn1nnc(-c2cc(N3CCC(C(=O)c4cc(F)ccc4Br)CC3)no2)n1` stands less than 0.02 µM.
For `O=C(O)Cn1nnc(-c2cc(N3CCC(C(=O)c4cc(F)ccc4C4CC4)CC3)no2)n1`, the IC50 was less than 0.02 µM.
The figure for `O=C(O)Cn1nnc(-c2cnc(N3CCN(c4cc(Cl)ccc4F)CC3)s2)n1` is less than 0.02 µM.
Under `COc1ccc(OC(F)(F)F)cc1C(=O)C1CCN(c2cc(-c3nnn(CC(=O)O)n3)on2)CC1` stands 0.085 µM; under `O=C(O)Cn1nnc(-c2cnc(N3CCN(c4ccccc4C(F)(F)F)CC3)s2)n1`, less than 0.02 µM.
`CCc1ccc(Cl)cc1C(=O)C1CCN(c2cc(-c3nnn(CC(=O)O)n3)on2)CC1`: the IC50 is less than 0.02 µM.
Under `O=C(O)Cn1nnc(-c2cc(N3CCC(C(=O)c4ccccc4OC(F)(F)F)CC3)no2)n1` stands 0.066 µM.
The figure for `O=C(O)Cn1nnc(-c2cnc(N3CCC(C(=O)c4cc(Cl)ccc4Cl)CC3)nc2)n1` is 0.058 µM.
The figure for `O=C(O)Cn1nnc(-c2cc(N3CCN(C(=O)c4cc(C(F)(F)F)ccc4Cl)CC3)no2)n1` is 0.024 µM; for `CCCc1ccc(Cl)cc1C(=O)C1CCN(c2cc(-c3nnn(CC(=O)O)n3)on2)CC1` it is 0.023 µM.
In turn, `O=C(O)Cn1nnc(-c2cc(N3CCC(C(=O)c4cc(F)ccc4Cl)CC3)no2)n1` returned an IC50 of less than 0.02 µM.
Under `O=C(O)Cn1nnc(-c2cc(N3CCC(C(=O)c4cc(Cl)ccc4Br)CC3)no2)n1` stands less than 0.02 µM; under `O=C(O)Cn1nnc(-c2cc(N3CCC(C(=O)c4cc(F)ccc4C(F)(F)F)CC3)no2)n1`, less than 0.02 µM; under `O=C(O)Cn1nnc(-c2cnc(N3CCC(C(=O)c4cc(OC(F)(F)F)ccc4Cl)CC3)nc2)n1`, less than 0.02 µM.
In the case of `O=C(O)Cn1nnc(-c2cnc(N3CCC(c4cccc(C(F)(F)F)c4)CC3)s2)n1`, the IC50 is less than 0.02 µM.
Under `CCC(C)c1ccc(F)cc1C(=O)C1CCN(c2cc(-c3nnn(CC(=O)O)n3)on2)CC1` (stereo not shown) [drawing 71] stands less than 0.02 µM.
The molecule `O=C(O)Cn1nnc(-c2cc(N3CCC(C(=O)c4cc(Br)ccc4Br)CC3)no2)n1` displayed an IC50 of less than 0.02 µM.
Under `O=C(O)Cn1nnc(-c2cnc(N3CCCN(c4cc(F)ccc4Cl)CC3)s2)n1` stands 0.029 µM; under `CC(C)(F)c1ccccc1C(=O)C1CCN(c2cc(-c3nnn(CC(=O)O)n3)on2)CC1`, less than 0.02 µM; under `O=C(O)Cn1nnc(-c2cnc(N3CCC(C(=O)c4ccccc4C(F)(F)F)CC3)s2)n1`, less than 0.02 µM.
The figure for `O=C(O)Cn1nnc(-c2cc(N3CCN(c4cc(F)ccc4Cl)CC3)no2)n1` is 0.035 µM.
Under `O=C(O)Cn1nnc(-c2cc(N3CCN(C(=O)c4cccc(OC(F)(F)F)c4)CC3)no2)n1` stands less than 0.02 µM; under `Cc1ccc(F)cc1C(=O)C1CCN(c2cc(-c3nnn(CC(=O)O)n3)on2)CC1`, 0.02 µM.
The molecule `O=C(O)Cn1nnc(-c2cc(N3CCN(c4cccc(C(F)(F)F)c4)CC3)no2)n1` returned an IC50 of 0.083 µM.
Under `O=C(O)Cn1nnc(-c2cc(N3CCC(C(=O)c4ccc(F)cc4Cl)CC3)no2)n1` stands 0.05 µM; under `O=C(O)Cn1nnc(-c2cc(N3CCC(C(=O)c4ccccc4Br)CC3)no2)n1`, 0.028 µM; under `Cc1ccc(Cl)c(C(=O)C2CCN(c3cc(-c4nnn(CC(=O)O)n4)on3)CC2)c1`, 0.079 µM.
Under `O=C(O)Cn1nnc(-c2cnc(N3CCC(C(=O)c4cc(F)ccc4Cl)CC3)nc2)n1` stands 0.046 µM; under `O=C(O)Cn1nnc(-c2cnc(N3CCN(c4cc(C(F)(F)F)ccc4Cl)CC3)s2)n1`, less than 0.02 µM.
The figure for `CCC(C)c1ccc(F)cc1C(=O)C1CCN(c2cc(-c3nnn(CC(=O)O)n3)on2)CC1` (stereo not shown) [drawing 70] is less than 0.02 µM.
Consider `O=C(O)Cn1nnc(-c2cc(N3CCC(C(=O)c4cc(F)ccc4CC4CC4)CC3)no2)n1`, for which the IC50 was less than 0.02 µM.
Under `O=C(O)Cn1nnc(-c2cc(N3CCC(C(=O)c4cc(Cl)ccc4Cl)CC3)no2)n1` stands 0.031 µM; under `Cc1ccc(C(F)(F)F)cc1C(=O)C1CCN(c2cc(-c3nnn(CC(=O)O)n3)on2)CC1`, 0.048 µM; under `O=C(O)Cn1nnc(-c2cnc(N3CCCN(c4ccccc4C(F)(F)F)CC3)s2)n1`, 0.03 µM.
Under `CC1(c2ccccc2C(=O)C2CCN(c3cc(-c4nnn(CC(=O)O)n4)on3)CC2)CC1` stands less than 0.02 µM; under `O=C(O)Cn1nnc(-c2cc(N3CCC(C(=O)c4cc(C(F)(F)F)ccc4C(F)(F)F)CC3)no2)n1`, less than 0.02 µM.
Molecule `O=C(O)Cn1nnc(-c2cnc(N3CCN(c4cc(F)ccc4Cl)CC3)s2)n1` registered a half-maximal inhibitory concentration (IC50) of less than 0.02 µM.
The figure for `O=C(O)Cn1nnc(-c2cnc(N3CCN(c4cccc(OC(F)(F)F)c4)CC3)s2)n1` is less than 0.02 µM.
